Measurements as given in patent US20160271178A1, “NANOPARTICLE-CONTAINING HYDROGELS” (priority 2013, published 2016).

Test system: P. aeruginosa
Assay: Bacterial suspension assay (OD measurement)
Type: cell-based
Conditions: tetracycline 10 and 20 μg/mL; 24 h
Protocol: Gels were prepared in 24-well sterile Nunc plates. 10 mM AgNO3 solution in 100 mM Tris-buffer (pH=8.5) was freshly prepared and used to dissolve the peptide to a final concentration of 10 mg/mL. The resultant solution was sonicated for 15-20 s to ensure complete dissolution of the peptide. 400 μL of the peptide solution was then aliquoted into each well and allowed to spread evenly on the surface. […] Prior to use, the plates were exposed to short-wavelength UV at 254 nm for 5 minutes to allow Ag NP formation. For the control gels, 100 mM Tris buffer without AgNO3 was used for Ac-LK6—NH2 hydrogel preparation.
50 μL of bacterial stock was inoculated overnight in 5 mL of Luria-Bertani (LB) medium (pH=7.5), with constant shaking at 300 rpm at 37° C. The log-phase bacterial solution was then diluted in LB medium to obtain an O.D. of 0.07 (at 600 nm). This was used as the starting bacterial solution (0 hr reading) and 400 μL of the solution was dispensed into each well of the 24-well plate containing the hydrogels. […] Ac-LK6—NH2 hydrogels without Ag NPs and bacteria-only solutions served as the negative controls. […] For the O.D. readings, 100 μL of the bacterial solution was transferred into a transparent 96 well Nunc plate just before measurement, to prevent the hydrogel layer from influencing absorbance measurements. […]

CN(C)[C@@H]1C(O)=C(C(N)=O)C(=O)[C@@]2(O)C(O)=C3C(=O)c4c(O)cccc4[C@@](C)(O)[C@H]3C[C@@H]12 [tetracycline, Tetracycline] was tested, and the “growth inhibition compared to the untreated control” value was “about 50%”.
